# Laboratory results as given in PMC11356819 (Molecules, 2024).
# Assay: PET biodistribution in healthy mice
# Assay type: in vivo, C57BL/6 mice
# Method: The in vivo stability, whole-body biodistribution and excretory pathways of [^18F]4 were investigated by small animal PET imaging in healthy C57BL/6 mice (Figure 5). […] In contrast, renal excretion was negligible, with very low radioactivity accumulation in the urinary bladder. Background uptake into muscles and other tissues was also low, with maximum SUVbw values of 52 ± 6 after 16 min followed by a decline to 18 ± 2 after 120 min. […] Nevertheless, while limited BBB penetrance might be an issue in patients with an intact BBB, brain tumors like gliomas are often associated with partial BBB disruption, which could facilitate tumor delivery of the probe. […] With this in mind and based on the reasonable in vivo stability and low background uptake, the tumor accumulation and mIDH-selectivity of [^18F]4 were further investigated in a subcutaneous tumor model.
# All experiments were carried out in accordance with the EU directive 2010/63/EU for animal experiments and the German Animal Welfare Act (TierSchG, 2006) and were approved by the regional authorities (LANUV NRW; 81-02.04.2022.A442). Six male CB17-SCID mice and four male C57BL/6 mice (Janvier Labs, Le Genest-Saint-Isle, France) were housed in groups in individually ventilated cages (Allentown LLC, Allentown, NJ, USA) in a temperature- and humidity-controlled room (20 ± 2 °C, 50–60% humidity) on a 12:12 h light–dark cycle. Throughout the experiments, the animals had ad libitum access to water and food.
# The mice were anesthetized with isoflurane (5% for induction, 2% for maintenance) in O2/air (3:7), and a catheter for tracer injection was inserted into the lateral tail vein. They were placed on an animal holder (Medres, Cologne, Germany) and fixed with a tooth bar in a respiratory mask. Body temperature was maintained at 37 °C by warming the animal bed. Eyes were protected from drying with Bepanthen eye and nose ointment (Bayer, Leverkusen, Germany). Respiratory rate was monitored and maintained at around 40–60 breaths per minute by adjusting the isoflurane concentration. A PET scan in list mode was conducted using a Focus 220 micro PET scanner (CTI-Siemens, Erlangen, Germany) with a resolution at the center of the field of view of 1.4 mm. Data acquisition started with intravenous tracer injection and ended after 120 min. This was followed by a 10 min transmission scan using a ^57Co point source for attenuation correction. After the scan was completed, the catheter was removed and the animals were allowed to wake up in their home cage. Data were histogrammed in three ways: (1) 4 × 30 min frames for visual display, (2) 28 frames (2 × 1 min, 2 × 2 min, 6 × 4 min, 18 × 5 min) for determination of time–activity curves, (3) 53 frames (12 × 10 s, 6 × 30 s, 15 × 1 min, 20 × 5 min) for kinetic modelling. Full 3D rebinning was followed by an iterative OSEM3D/MAP reconstruction algorithm with attenuation and decay correction. The resulting voxel sizes were 0.47 mm × 0.47 mm × 0.80 mm. All further analysis was performed with the software VINCI 5.21 (Max Planck Institute for Metabolism Research, Cologne, Germany). Standardized uptake values based on body weight (SUVbw) were determined according to the following equation: SUVbw = radioactivity [Bq/g] × body weight [g] × 100/injected dose [Bq]. Statistical analysis of the results was performed with a 2-way analysis of variance (ANOVA) followed by Sidak’s multiple comparison test to identify significant differences between the two tumor types.
smiles,measurement,setting,value
COc1cc(NCc2cc3cc([18F])ccc3[nH]c2=O)ccc1C#N [[^18F]4],max. SUVbw liver,"after 3 min, i.v., n = 4",304 ± 54
same,maximum SUVbw muscles and other tissues (background),after 16 min,52 ± 6
same,SUVbw bone,after 120 min,67 ± 8
same,SUVbw muscles and other tissues (background),after 120 min,18 ± 2
same,max. SUVbw intestine,"after 120 min, i.v., n = 4",5344 ± 1693
same,excretory pathway,"mouse, in vivo",almost exclusive hepatobiliary excretion
same,renal excretion,"mouse, in vivo",negligible
same,brain uptake of radioactivity,throughout all measurements,very low
